Converted amounts (≈) assume the structure as drawn. Like-named read-outs stand apart in the source and are kept apart here.
How the values were obtained:
[1] = in vitro; assay type: cell-based, human; conditions: human; MRC-5 (lung fibroblast); 24 h; one biological replicate (n = 3); read-out: CC50 for human cells
Protocol: (§1) as a range from biological replicates. Inhibition curves were generated using Prism (GraphPad).
(§2) The IC50 values reported in Table 2 are the average of the two biological replicates ± standard […]
(§3) Cytotoxicity Assay Procedure
(§4) Human lung fibroblast cells, MRC -5 (CCL-171), were cultured at 37℃ with 5% CO2 and were plated at 5000 cells/well in a 96 -well plate. Compounds 1, 2, and 15-22 were initially prepared at concentrations of 5.12 mg/mL in a vehicle of 50% DMSO. Dilutions of the compounds (4 – 512 μg/mL) were then prepared in growth medium containing Dulbecco’s modified Eagle’s medium (DMEM) with high glucose, L -glutamine, and sodium pyruvate supplemented with 10% fetal bovine serum (FBS), 1% non -essential amino acids, and 0.1% gentamicin sulfate, and 25mM HEPES. The vehicle (50% DMSO) was also prepared via the sa me dilution series to serve as a control. Growth media was removed from the cells and replaced with the same volume of each compound dilution. Cells were incubated for 24 h , after which CellTiter 96® AQueous One Solution Reagent was added to each well as recommended by the manufacturer’s protocol (Promega CellTiter 96 AQueous One Solution Cell Proliferation Assay) and further incubated for 4 h. After incubation, absorbance was measured at 490 nm on an Infinite M plex multimode microplate reader with i -control Tecan software. Viability was calculated by subtracting media only absorbance values and normalizing to the vehicle control at each concentration. The presented data is one assay performed in triplicate that is representative of multiple trials. Data for the 256 and 512 μg/mL concentrations were removed from analysis due to vehicle toxicity […]
(§5) CC50 concentrations were determined via the ED50 Plus v1.0 software (https://archive.org/details/ed50v10_zip).
Figure S41. The effect of compounds on cell viability. The lines represent non -linear regression curves, and error bars represent means ± […]
SD (n=3). […]

[2] = tested on: S. aureus 8810; experiment: Broth microdilution antibacterial assay; assay type: cell-based, Staphylococcus aureus; conditions: for Selectivity index (CC50/IC50): MRC-5 CC50 / S. aureus IC50; for IC50 / MIC: Staphylococcus aureus, 8810; for IC50: average of two biological replicates ± S.D., read-out: IC50
Protocol: (§6) Antibacterial Assay Procedure
(§7) Broth Microdilution Assays
(§8) Media and solutions were autoclaved or sterile filtered prior to use and manipulations were carried out in a laminar flow hood. Antibacterial testing was performed in polypropylene 96 -well flat bottom plates. The minimal inhibitory concentration of blasticidin S ( 1) hydrochloride, P10 (2), and derivatives 15–22 were assessed against Staphylococcus aureus ΔNorA, S. aureus 8810, methicillin-resistant S. aureus (MRSA) ATCC 43300, Enterococcus faecalis ATCC 29212, vancomycin-resistant Enterococcus, Klebsiella pneumoniae ATCC 29665, Pseudomonas aeruginosa, and Acinetobacter baumannii ATCC 17978 using serial dilutions. Doxycycline (Gold Bio) as a positive control and the vehicle as a negative control. Stock solutions of each compound were prepared at 5.12 mg/mL in 50% DMSO/water and serially diluted in 50% DMSO/water to create master plates. From the master plates, 10 μL of each dilution was applied to test plates using a Bravo automated liquid transfer system (Agilent). Bacteria previously grown overnight (37 °C, 120 – 200 RPM), in LB broth were diluted to an OD600 of 0.0 5 in cation-adjusted Mueller-Hinton broth, grown to an OD600 of ~0.5, and diluted to an OD600 of 0.004 in cation-adjusted Mueller-Hinton broth. These diluted cultures were applied to the test plates (190 μL per test well) resulting in final concentrations of the test compounds of 256–2 μg/mL. Growth controls (wells with inoculated media but no vehicle or test compounds) were included to assess any potential toxicity from the vehicle. The plates were incubated at 37 °C for 16–18 h, except for VRE and E. faecalis, which were incubated at 37 °C for 24 h. Inhibition was determined by measuring the optical density at 600 nm (OD600) with a Cytation 3 plate reader (BioTek). The optical density measurements were normalized to the positive and negative controls and the vehicle and growth controls were compared and found to be indistinguishable, indicating no toxicity from the vehicle used. The MIC was the lowest concentration that inhibited >90% of growth. Two biological replicates were performed in duplicate. MIC values are reported […]
as §1, §2, §3, §4, §5

[3] = tested on: methicillin-resistant S. aureus (MRSA) ATCC 43300; experiment: Broth microdilution antibacterial assay; assay type: cell-based, Staphylococcus aureus; conditions: for Selectivity index (CC50/IC50): MRC-5 CC50 / MRSA IC50; for IC50 / MIC: Staphylococcus aureus; for IC50: average of two biological replicates ± S.D., read-out: IC50
Protocol: as §6, §7, §8, §1, §2, §3, §4, §5

[4] = tested on: Enterococcus faecalis ATCC 29212; experiment: Broth microdilution antibacterial assay; assay type: cell-based; conditions: for MIC / IC50: Enterococcus faecalis, ATCC29212; for IC50: average of two biological replicates ± S.D. (18: one biological replicate), read-out: IC50; for Selectivity index (CC50/IC50): MRC-5 CC50 / E. faecalis IC50
Protocol: as §6, §7, §8, §1, §2, §3, §4, §5

[5] = tested on: Pseudomonas aeruginosa; experiment: Broth microdilution antibacterial assay; assay type: cell-based; conditions: for Selectivity index (CC50/IC50): MRC-5 CC50 / P. aeruginosa IC50; for IC50 / MIC: Pseudomonas aeruginosa, P. aeruginosa; for IC50: average of two biological replicates ± S.D., read-out: IC50; for MIC: lowest concentration inhibiting >90% of growth, range from biological replicates, read-out: MIC
Protocol: as §6, §7, §8, §1, §2, §3, §4, §5

[6] = tested on: vancomycin-resistant Enterococcus (VRE); experiment: Broth microdilution antibacterial assay; assay type: cell-based; conditions: for MIC / IC50: Enterococcus; for IC50: average of two biological replicates ± S.D., read-out: IC50; for Selectivity index (CC50/IC50): MRC-5 CC50 / VRE IC50
Protocol: as §6, §7, §8, §1, §2, §3, §4, §5

[7] = tested on: Acinetobacter baumannii ATCC 17978; experiment: Broth microdilution antibacterial assay; assay type: cell-based; conditions: for IC50 / MIC: Acinetobacter baumannii, ATCC17978, A. baumannii; for IC50: average of two biological replicates ± S.D., read-out: IC50; for MIC: lowest concentration inhibiting >90% of growth, range from biological replicates, read-out: MIC; for Selectivity index (CC50/IC50): MRC-5 CC50 / A. baumannii IC50
Protocol: as §6, §7, §8, §1, §2, §3, §4, §5

[8] = tested on: Klebsiella pneumoniae ATCC 29665; experiment: Broth microdilution antibacterial assay; assay type: cell-based; conditions: for IC50 / MIC: Klebsiella pneumoniae, ATCC29665, K. pneumoniae; for IC50: average of two biological replicates ± S.D., read-out: IC50; for MIC: lowest concentration inhibiting >90% of growth, range from biological replicates, read-out: MIC; for Selectivity index (CC50/IC50): MRC-5 CC50 / K. pneumoniae IC50
Protocol: as §6, §7, §8, §1, §2, §3, §4, §5

[9] = tested on: Staphylococcus aureus ΔNorA; experiment: Broth microdilution antibacterial assay; assay type: cell-based; conditions: for Selectivity index (CC50/IC50): MRC-5 CC50 / S. aureus ΔNorA IC50; for IC50 / MIC: Staphylococcus aureus
Protocol: as §6, §7, §8, §1, §2, §3, §4, §5

[10] = S. aureus, lowest concentration inhibiting >90% of growth, range from biological replicates, read-out: MIC
[11] = average MIC, Table S3, read-out: Average Activity against S. aureus
[12] = MRSA, lowest concentration inhibiting >90% of growth, range from biological replicates, read-out: MIC
[13] = average MIC, Table S3, read-out: Average Activity against MRSA
[14] = E. faecalis, 24 h, lowest concentration inhibiting >90% of growth, range from biological replicates, read-out: MIC
[15] = average MIC, Table S3, read-out: Average Activity against E. faecalis
[16] = VRE, average MIC, Table S3, read-out: Average Activity against VRE
[17] = VRE, 24 h, lowest concentration inhibiting >90% of growth, range from biological replicates, read-out: MIC

With CN(CC[C@H](N)CC(=O)N[C@H]1C=C[C@H](n2ccc(N)nc2=O)O[C@@H]1C(=O)NCCO)C(=N)N [Compound 21] the CC50 at 24 h [1] was 58.1 µg/mL (≈ 125 µM), the “Selectivity index (CC50/IC50)” value [2] was 7.1 and the IC50 ([2]; S. aureus) was 8.1 ± 0.7 µg/mL (≈ 17.4 µM). The MIC [2, 10] was 64 µg/mL (≈ 137 µM), the MIC [2, 11] was 64 µg/mL (≈ 137 µM) and the “Selectivity index (CC50/IC50)” value [3] was 4.9. It also gave an IC50 ([3]; MRSA) of 11.8 ± 0.2 µg/mL (≈ 25.3 µM), an MIC [3, 12] of 32 to 64 µg/mL (≈ 68.7 to 137 µM) and an MIC [3, 13] of 48 µg/mL (≈ 103 µM). For the same molecule, the MIC [4, 14] was 32 µg/mL (≈ 68.7 µM), the IC50 ([4]; E. faecalis) was 22.3 ± 4 µg/mL (≈ 47.9 µM) and the MIC [4, 15] was 32 µg/mL (≈ 68.7 µM). For the same molecule, the “Selectivity index (CC50/IC50)” value [4] was 2.6, the “Selectivity index (CC50/IC50)” value [5] was 1.7 and the IC50 [5] was 34.1 ± 0.3 µg/mL (≈ 73.3 µM). It also gave an MIC [5] of 128 µg/mL (≈ 275 µM), an MIC [6, 16] of 128 µg/mL (≈ 275 µM) and an MIC [6, 17] of 128 µg/mL (≈ 275 µM). For the same molecule, the IC50 ([6]; VRE) was 15.3 ± 3.3 µg/mL (≈ 32.9 µM), the “Selectivity index (CC50/IC50)” value [6] was 3.8 and the IC50 [7] was 21.2 ± 0.6 µg/mL (≈ 45.5 µM). The MIC [7] was 64 to 128 µg/mL (≈ 137 to 275 µM), the “Selectivity index (CC50/IC50)” value [7] was 2.7 and the IC50 [8] was 19.7 ± 0.5 µg/mL (≈ 42.3 µM). For the same molecule, the MIC [8] was 64 µg/mL (≈ 137 µM), the “Selectivity index (CC50/IC50)” value [8] was 3.0 and the “Selectivity index (CC50/IC50)” value [9] was 1.6. It also gave an IC50 [9] of 35.5 ± 2.5 µg/mL (≈ 76.3 µM) and an MIC [9] of 256 µg/mL (≈ 550 µM).

With CN(CC[C@H](N)CC(=O)N[C@H]1C=C[C@H](n2ccc(N)nc2=O)O[C@@H]1C(=O)NCCc1ccccc1)C(=N)N [Compound 22] the CC50 at 24 h [1] was 58.4 µg/mL (≈ 111 µM), the “Selectivity index (CC50/IC50)” value [2] was 15 and the “better activity than the phenethyl ester of the previous study” value ([2]; S. aureus, ester data ref 8) was 4- to 8 fold. It also gave an IC50 ([2]; S. aureus) of 3.8 ± 0.2 µg/mL (≈ 7.23 µM), an MIC [2, 10] of 16 µg/mL (≈ 30.4 µM) and an MIC [2, 11] of 12 µg/mL (≈ 22.8 µM). For the same molecule, the “Selectivity index (CC50/IC50)” value [3] was 15, the “increase in potency compared to 1” value ([3]; MRSA, MIC) was 16 to 32 fold and the “better activity than the phenethyl ester of the previous study” value ([3]; MRSA, ester data ref 8) was 4- to 8 fold. It also gave an IC50 ([3]; MRSA) of 4 ± 0.3 µg/mL (≈ 7.61 µM), an MIC [3, 12] of 8 to 16 µg/mL (≈ 15.2 to 30.4 µM) and an MIC [3, 13] of 12 µg/mL (≈ 22.8 µM). The MIC [4, 14] was 8 µg/mL (≈ 15.2 µM), the IC50 ([4]; E. faecalis) was 6.1 ± 2.6 µg/mL (≈ 11.6 µM) and the MIC [4, 15] was 8 µg/mL (≈ 15.2 µM). For the same molecule, the “Selectivity index (CC50/IC50)” value [4] was 9.6, the “Selectivity index (CC50/IC50)” value [5] was 3.5 and the IC50 [5] was 16.5 ± 2.1 µg/mL (≈ 31.4 µM). For the same molecule, the MIC [5] was 64 µg/mL (≈ 122 µM), the MIC [6, 16] was 32 µg/mL (≈ 60.9 µM) and the MIC [6, 17] was 32 µg/mL (≈ 60.9 µM). The IC50 ([6]; VRE) was 11.1 ± 0.8 µg/mL (≈ 21.1 µM), the “Selectivity index (CC50/IC50)” value [6] was 5.2 and the “increase in potency compared to 1” value ([6]; VRE, MIC) was 8 fold. The IC50 [7] was 183 ± 19 µg/mL (≈ 348 µM), the MIC [7] was over 256 µg/mL and the “Selectivity index (CC50/IC50)” value [7] was 0.3. The IC50 [8] was 36.9 ± 4.7 µg/mL (≈ 70.2 µM), the MIC [8] was 256 µg/mL (≈ 487 µM) and the “Selectivity index (CC50/IC50)” value [8] was 1.6. The “Selectivity index (CC50/IC50)” value [9] was 3.0, the IC50 [9] was 19.3 ± 0.2 µg/mL (≈ 36.7 µM) and the MIC [9] was 128 µg/mL (≈ 244 µM).
